Measured values from ChEMBL document CHEMBL5512655, “Discovery of indolylacryloyl-derived oxacins as novel potential broad-spectrum antibacterial candidates” (Eur J Med Chem, 2024).
In brackets after ≈: the same amount, converted by molar mass.

Columns and labels:
Assay type in all cases: functional
Staphylococcus aureus [1] = assay: Antibacterial activity against methicillin-resistant Staphylococcus aureus N315 assessed as inhibition of bacterial growth measured after 24 hrs incubation
Staphylococcus aureus [2] = assay: Antibacterial activity against Staphylococcus aureus assessed as inhibition of bacterial growth measured after 24 hrs incubation
Staphylococcus aureus [3] = assay: Antibacterial activity against Staphylococcus aureus ATCC 25923 assessed as inhibition of bacterial growth measured after 24 hrs incubation
Staphylococcus aureus [4] = assay: Antibacterial activity against Staphylococcus aureus ATCC 29213 assessed as inhibition of bacterial growth measured after 24 hrs incubation
Enterococcus faecalis = assay: Antibacterial activity against Enterococcus faecalis assessed as inhibition of bacterial growth measured after 24 hrs incubation
Klebsiella pneumoniae = assay: Antibacterial activity against Klebsiella pneumonia assessed as inhibition of bacterial growth measured after 24 hrs incubation
Escherichia coli [5] = assay: Antibacterial activity against Escherichia coli assessed as inhibition of bacterial growth measured after 24 hrs incubation
Escherichia coli [6] = assay: Antibacterial activity against Escherichia coli ATCC 25922 assessed as inhibition of bacterial growth measured after 24 hrs incubation
Pseudomonas aeruginosa [7] = assay: Antibacterial activity against Pseudomonas aeruginosa assessed as inhibition of bacterial growth measured after 24 hrs incubation
Pseudomonas aeruginosa [8] = assay: Antibacterial activity against Pseudomonas aeruginosa ATCC 27853 assessed as inhibition of bacterial growth measured after 24 hrs incubation
Acinetobacter baumannii = assay: Antibacterial activity against Acinetobacter baumannii assessed as inhibition of bacterial growth measured after 24 hrs incubation

| Compound | MIC (Staphylococcus aureus [1]) [µg/mL] | MIC (Staphylococcus aureus [2]) [µg/mL] | MIC (Staphylococcus aureus [3]) [µg/mL] | MIC (Staphylococcus aureus [4]) [µg/mL] | MIC (Enterococcus faecalis) [µg/mL] | MIC (Klebsiella pneumoniae) [µg/mL] | MIC (Escherichia coli [5]) [µg/mL] | MIC (Escherichia coli [6]) [µg/mL] | MIC (Pseudomonas aeruginosa [7]) [µg/mL] | MIC (Pseudomonas aeruginosa [8]) [µg/mL] | MIC (Acinetobacter baumannii) [µg/mL] |
| --- | --- | --- | --- | --- | --- | --- | --- | --- | --- | --- | --- |
| CCn1cc(C(=O)O)c(=O)c2cc(F)c(N3CCN(C(=O)/C(C#N)=C/c4cn(CC(=O)N5CCOCC5)c5ccccc45)CC3)cc21 | 2 (≈ 3.12 µM) | 8 (≈ 12.5 µM) | 2 (≈ 3.12 µM) | 4 (≈ 6.24 µM) | 1 (≈ 1.56 µM) | 1 (≈ 1.56 µM) | 0.5 (≈ 0.78 µM) | 0.5 (≈ 0.78 µM) | 1 (≈ 1.56 µM) | 0.25 (≈ 0.39 µM) | 0.5 (≈ 0.78 µM) |
| CCn1cc(C(=O)O)c(=O)c2cc(F)c(N3CCN(C(=O)/C(C#N)=C/c4cn(CC5CCCC5)c5ccccc45)CC3)cc21 | 32 (≈ 53.7 µM) | 16 (≈ 26.9 µM) | 1 (≈ 1.68 µM) | 2 (≈ 3.36 µM) | 8 (≈ 13.4 µM) | 0.5 (≈ 0.839 µM) | 4 (≈ 6.72 µM) | 1 (≈ 1.68 µM) | 0.5 (≈ 0.839 µM) | 1 (≈ 1.68 µM) | 16 (≈ 26.9 µM) |
| CCOC(=O)Cn1cc(/C=C(\C#N)C(=O)N2CCN(c3cc4c(cc3F)c(=O)c(C(=O)O)cn4CC=C(C)C)CC2)c2ccccc21 | 8 (≈ 12.5 µM) | 16 (≈ 25 µM) | 16 (≈ 25 µM) | 8 (≈ 12.5 µM) | 0.25 (≈ 0.391 µM) | 1 (≈ 1.56 µM) | 32 (≈ 50 µM) | 0.5 (≈ 0.782 µM) | 16 (≈ 25 µM) | 16 (≈ 25 µM) | 16 (≈ 25 µM) |
| CCCCCCCCn1cc(/C=C(\C#N)C(=O)N2CCN(c3cc4c(cc3F)c(=O)c(C(=O)O)cn4CC)CC2)c2ccccc21 | 0.5 (≈ 0.799 µM) | 1 (≈ 1.6 µM) | 0.25 (≈ 0.4 µM) | 1 (≈ 1.6 µM) | 1 (≈ 1.6 µM) | 2 (≈ 3.2 µM) | 64 (≈ 102 µM) | 4 (≈ 6.39 µM) | 16 (≈ 25.6 µM) | 32 (≈ 51.1 µM) | 8 (≈ 12.8 µM) |
| CCn1cc(C(=O)O)c(=O)c2cc(F)c(N3CCN(C(=O)/C(C#N)=C/c4cn(Cc5ccccc5F)c5ccccc45)CC3)cc21 | 0.25 (≈ 0.402 µM) | 32 (≈ 51.5 µM) | 16 (≈ 25.7 µM) | 32 (≈ 51.5 µM) | 16 (≈ 25.7 µM) | 1 (≈ 1.61 µM) | 0.5 (≈ 0.804 µM) | 0.25 (≈ 0.402 µM) | 1 (≈ 1.61 µM) | 0.5 (≈ 0.804 µM) | 0.5 (≈ 0.804 µM) |
| CCn1cc(C(=O)O)c(=O)c2cc(F)c(N3CCN(C(=O)/C(C#N)=C/c4c[nH]c5ccccc45)CC3)cc21 | 0.5 (≈ 0.974 µM) | 4 (≈ 7.79 µM) | 1 (≈ 1.95 µM) | 0.5 (≈ 0.974 µM) | 0.25 (≈ 0.487 µM) | 0.25 (≈ 0.487 µM) | 0.5 (≈ 0.974 µM) | 0.25 (≈ 0.487 µM) | 1 (≈ 1.95 µM) | 0.5 (≈ 0.974 µM) | 0.25 (≈ 0.487 µM) |
| CCn1cc(C(=O)O)c(=O)c2cc(F)c(N3CCN(C(=O)/C(C#N)=C/c4cn(Cc5cccc(F)c5)c5ccccc45)CC3)cc21 | 16 (≈ 25.7 µM) | 32 (≈ 51.5 µM) | 16 (≈ 25.7 µM) | 8 (≈ 12.9 µM) | 16 (≈ 25.7 µM) | 1 (≈ 1.61 µM) | 0.25 (≈ 0.402 µM) | 0.25 (≈ 0.402 µM) | 2 (≈ 3.22 µM) | 1 (≈ 1.61 µM) | 0.5 (≈ 0.804 µM) |
| CCn1cc(C(=O)O)c(=O)c2cc(F)c(N3CCN(C(=O)/C(C#N)=C/c4cn(Cc5ccc(Cl)c(Cl)c5)c5ccccc45)CC3)cc21 | 4 (≈ 5.95 µM) | 16 (≈ 23.8 µM) | 64 (≈ 95.2 µM) | 64 (≈ 95.2 µM) | 32 (≈ 47.6 µM) | 1 (≈ 1.49 µM) | 8 (≈ 11.9 µM) | 32 (≈ 47.6 µM) | 2 (≈ 2.97 µM) | 1 (≈ 1.49 µM) | 64 (≈ 95.2 µM) |
| CCn1cc(C(=O)O)c(=O)c2cc(F)c(N3CCN(C(=O)/C(C#N)=C/c4cn(CC(N)=O)c5ccccc45)CC3)cc21 | 0.25 (≈ 0.438 µM) | 32 (≈ 56.1 µM) | 8 (≈ 14 µM) | 16 (≈ 28 µM) | 16 (≈ 28 µM) | 1 (≈ 1.75 µM) | 0.5 (≈ 0.876 µM) | 0.25 (≈ 0.438 µM) | 8 (≈ 14 µM) | 1 (≈ 1.75 µM) | 8 (≈ 14 µM) |
| CCn1cc(C(=O)O)c(=O)c2cc(F)c(N3CCNCC3)cc21 [NORFLOXACIN] | 0.5 (≈ 1.57 µM) | 0.5 (≈ 1.57 µM) | 2 (≈ 6.26 µM) | 1 (≈ 3.13 µM) | 0.5 (≈ 1.57 µM) | 0.5 (≈ 1.57 µM) | 2 (≈ 6.26 µM) | 0.5 (≈ 1.57 µM) | 4 (≈ 12.5 µM) | 1 (≈ 3.13 µM) | 1 (≈ 3.13 µM) |
| CCn1cc(C(=O)O)c(=O)c2cc(F)c(N3CCN(C(=O)/C(C#N)=C/c4cn(CCN5CCOCC5)c5ccccc45)CC3)cc21 | 0.25 (≈ 0.399 µM) | 0.5 (≈ 0.798 µM) | 4 (≈ 6.38 µM) | 0.5 (≈ 0.798 µM) | 0.25 (≈ 0.399 µM) | 2 (≈ 3.19 µM) | 1 (≈ 1.6 µM) | 2 (≈ 3.19 µM) | 1 (≈ 1.6 µM) | 1 (≈ 1.6 µM) | 0.5 (≈ 0.798 µM) |
| CCn1cc(C(=O)O)c(=O)c2cc(F)c(N3CCN(C(=O)/C(C#N)=C/c4c[nH]c5ccc(Cl)cc45)CC3)cc21 | 1 (≈ 1.82 µM) | 1 (≈ 1.82 µM) | 16 (≈ 29.2 µM) | 2 (≈ 3.65 µM) | 1 (≈ 1.82 µM) | 1 (≈ 1.82 µM) | 0.25 (≈ 0.456 µM) | 0.25 (≈ 0.456 µM) | 2 (≈ 3.65 µM) | 0.25 (≈ 0.456 µM) | 1 (≈ 1.82 µM) |
